According to patent US20260345792A1, “PROTACs AND HyT-PD MOLECULES FOR TARGETED PROTEIN DEGRADATION OF DCAF15 AND THEIR USE IN THE TREATMENT OF AMYLOIDOSIS” (KRÆFTENS BEKÆMPELSE, priority 2023, published 2026):
Where a SMILES comes first, the peptide text is derived from it. The star is where a group is joined. Cbz = O=C(OCc1ccccc1)*

Columns and labels:
HCT116 cells [1] = test: Clearance of protein aggregates: puromycin with Bafilomycin or MG132; assay type: cell-based; conditions: with 5 μg/ml puromycin 4 h; 200 nM Bafilomycin or 5 μM MG132
Protocol: Cells were fixed and stained for ubiquitin and p62. A representative experiment is shown (n=3).
HCT116 cells were treated with 5 μg/ml puromycin for 4 h alone or in combination with 200 nM Bafilomycin-1 or 5 μM MG132. Cells were fixed and stained for ubiquitin and p62. A representative experiment is shown (n=3) (see FIG. 3A). The double positive puncta per cell was quantified (see FIG. 3B).

HCT116 cells [2] = test: Proliferation (confluency) and clonogenic survival after puromycin, by DCAF15 genotype; assay type: cell-based; conditions: 5 μg/ml puromycin 4 h
Protocol: Confluency was recorded with imaging every 4 h. Representative experiments with technical triplicates are shown (n=3).
HCT116 cells were treated with 5 μg/ml puromycin for 4 h or left untreated before being released into normal growth media for 72 h. Confluency was recorded with imaging every 4 h, representative experiments with technical triplicates (n=3) are shown (see FIG. 4A.). HCT116 cells were treated with 5 μg/ml puromycin for 4 h before release into full media or left untreated for 7 days before fixation and crystal violet staining (see FIG. 4B.). Quantification of FIG. 4B as integrated density per well (see FIG. 4C).

HCT116 cells; BE2C cells = test: Ubiquitin and p62 co-stained aggregates per cell after puromycin, by DCAF15 genotype; assay type: cell-based; conditions: 5 μg/ml puromycin, 4 h; DCAF15−/− vs WT and reconstituted cell lines
Protocol: Cells were stained for ubiquitinated proteins and p62. Separate and merged channels from a representative experiment are shown (n>3).
HCT116 cells with indicated genotypes were treated with 5 μg/ml puromycin for 4 h or left untreated (NT) before fixation. Cells were stained for ubiquitinated proteins and p62. Separate and merged channels from a representative experiment are shown (n>3) (see FIG. 1A). The number of ubiquitin and p62 co-stained aggregates per cell were quantified (see FIG. 1B.).
BE2C cells with indicated genotypes were treated and analysed as above (n=3). Separate and merged channels from a representative experiment are shown (n>3) (see FIG. 1C). The number of ubiquitin and p62 co-stained aggregates per cell were quantified (see FIG. 1D.).
Cell lines: WT (wild-type), DCAF15−/− (CRISPR-mediated stable DCAF15−/− knock-out cells), DCAF15−/−+WT 3xF (DCAF15−/− cells reconstituted with WT DCAF15 with 3×flag-tag).

DCAF15 = conditions: Han et al., 2017 and WO 2022/169755; cited from earlier work
human cancer cell lines = conditions: cited from earlier work

Row | SMILES | aggregate numbers in WT and reconstituted cell lines (HCT116 cells [1]) | re-appearance of aggregates in DCAF15−/− cells (HCT116 cells [1]) | ligand for DCAF15 (DCAF15) | further results
1 | CO/C1=C\C(C)=C\[C@@H](C)[C@@H](O)[C@@H](C)C/C(C)=C/C=C/[C@H](OC)[C@@H]([C@@H](C)[C@@H](O)[C@H](C)[C@@]2(O)C[C@@H](O)[C@H](C)[C@@H](C(C)C)O2)OC1=O [Bafilomycin A1] | enhance aggregate numbers in WT and reconstituted cell lines | we do not detect any re-appearance of aggregates in DCAF15−/− cells after treatments | – | –
2 | CC(C)C[C@@H](C=O)NC(=O)[C@H](CC(C)C)NC(=O)[C@H](CC(C)C)NC(=O)OCc1ccccc1 [MG132] (Cbz-Leu-Leu-Leu-aldehyde) | enhance aggregate numbers in WT and reconstituted cell lines | we do not detect any re-appearance of aggregates in DCAF15−/− cells after treatments | – | –
3 | COc1ccc(C[C@H](N)C(=O)N[C@H]2[C@@H](O)[C@H](n3cnc4c(N(C)C)ncnc43)O[C@@H]2CO)cc1 [Puromycin, puromycin] | – | – | – | clonogenic survival, sensitivity of DCAF15−/− cells (HCT116 cells [2]; 7 days, crystal violet (FIGS. 4B and 4C)): insensitivity of DCAF15−/− cells to puromycin-induced toxicity; proliferation of DCAF15−/− cells (HCT116 cells [2]; release for 72 h (FIG. 4A)): DCAF15−/− cells remain undeterred by puromycin treatment; proliferation rates in WT and reconstituted cell lines (HCT116 cells [2]; release for 72 h (FIG. 4A)): significantly reduced proliferation rates; protein aggregation (co-localization of ubiquitin and p62) (HCT116 cells; BE2C cells): significant reduction of aggregates in DCAF15−/− cells relative to WT and reconstituted cell lines
4 | NS(=O)(=O)c1ccc(S(=O)(=O)Nc2cccc3c(Cl)c[nH]c23)cc1 [indisulam] | – | – | act as ligands for DCAF15 | inhibition of proliferation (human cancer cell lines): inhibits the proliferation of certain human cancer cell lines
5 | O=C(NS(=O)(=O)c1ccc(Br)s1)c1ccc(Cl)cc1Cl [tasisulam] | – | – | act as ligands for DCAF15 | –
